Results reported in PubChem BioAssay (NCI).
In brackets after ≈: the same amount, converted by molar mass.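 Tested at 5 concentrations; 48 h exposure; 96-well plates; endpoints linearly interpolated, else capped at highest concentration. Abbreviation: GI50, concentration required for 50% inhibition of growth. TGI denotes the concentration required for complete inhibition of growth.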 Where a SMILES comes first, the peptide text is derived from it.

How the values were obtained:
Experiment in all cases: NCI tumour cell line growth inhibition, 48 h
786-0 renal = tested on: 786-0 renal
A498 renal = tested on: A498 renal
A549 NSCLC = tested on: A549 NSCLC
ACHN renal = tested on: ACHN renal
BT-549 breast = tested on: BT-549 breast
CAKI-1 renal = tested on: CAKI-1 renal
CCRF-CEM leukemia = tested on: CCRF-CEM leukemia
EKVX NSCLC = tested on: EKVX NSCLC
HCC-2998 colon = tested on: HCC-2998 colon
HCT-15 colon = tested on: HCT-15 colon
HL-60(TB) leukemia = tested on: HL-60(TB) leukemia
HS 578T breast = tested on: HS 578T breast
HT29 colon = tested on: HT29 colon
IGROV1 ovarian = tested on: IGROV1 ovarian
K-562 leukemia = tested on: K-562 leukemia
KM12 colon = tested on: KM12 colon
LOX IMVI melanoma = tested on: LOX IMVI melanoma
M14 melanoma = tested on: M14 melanoma
MCF7 breast = tested on: MCF7 breast
MOLT-4 leukemia = tested on: MOLT-4 leukemia
NCI-H226 lung = tested on: NCI-H226 lung
NCI-H23 lung = tested on: NCI-H23 lung
NCI-H460 lung = tested on: NCI-H460 lung
NCI/ADR-RES ovarian = tested on: NCI/ADR-RES ovarian
OVCAR-3 ovarian = tested on: OVCAR-3 ovarian
OVCAR-4 ovarian = tested on: OVCAR-4 ovarian
OVCAR-5 ovarian = tested on: OVCAR-5 ovarian
OVCAR-8 ovarian = tested on: OVCAR-8 ovarian
PC-3 prostate = tested on: PC-3 prostate
RPMI-8226 leukemia = tested on: RPMI-8226 leukemia
RXF 393 renal = tested on: RXF 393 renal
SF-268 CNS = tested on: SF-268 CNS
SF-539 CNS = tested on: SF-539 CNS
SK-MEL-28 melanoma = tested on: SK-MEL-28 melanoma
SK-MEL-5 melanoma = tested on: SK-MEL-5 melanoma
SK-OV-3 ovarian = tested on: SK-OV-3 ovarian
SN12C renal = tested on: SN12C renal
SNB-19 CNS = tested on: SNB-19 CNS
SNB-75 CNS = tested on: SNB-75 CNS
SR leukemia = tested on: SR leukemia
SW-620 colon = tested on: SW-620 colon
TK-10 renal = tested on: TK-10 renal
U251 CNS = tested on: U251 CNS
UACC-62 melanoma = tested on: UACC-62 melanoma
UO-31 renal = tested on: UO-31 renal
DU-145 prostate = tested on: DU-145 prostate
HOP-92 NSCLC = tested on: HOP-92 NSCLC
NCI-H522 lung = tested on: NCI-H522 lung
SK-MEL-2 melanoma = tested on: SK-MEL-2 melanoma
T-47D breast = tested on: T-47D breast
COLO 205 colon = tested on: COLO 205 colon
HCT-116 colon = tested on: HCT-116 colon
HOP-62 NSCLC = tested on: HOP-62 NSCLC
MALME-3M melanoma = tested on: MALME-3M melanoma
MDA-MB-231 breast = tested on: MDA-MB-231 breast
MDA-MB-435 = tested on: MDA-MB-435
SF-295 CNS = tested on: SF-295 CNS
UACC-257 melanoma = tested on: UACC-257 melanoma

Compound: O=C1/C(=C/c2cccc3ccccc23)Cc2ccccc21
- TGI (786-0 renal): 48.3 µM
- TGI (A498 renal): > 100 µM
- TGI (A549 NSCLC): > 100 µM
- TGI (ACHN renal): > 100 µM
- TGI (BT-549 breast): 29.9 µM
- TGI (CAKI-1 renal): > 100 µM
- TGI (CCRF-CEM leukemia): > 100 µM
- TGI (EKVX NSCLC): > 100 µM
- TGI (HCC-2998 colon): > 100 µM
- TGI (HCT-15 colon): > 100 µM
- TGI (HL-60(TB) leukemia): > 100 µM
- TGI (HS 578T breast): 73.3 µM
- TGI (HT29 colon): > 100 µM
- TGI (IGROV1 ovarian): > 100 µM
- TGI (K-562 leukemia): > 100 µM
- TGI (KM12 colon): > 100 µM
- TGI (LOX IMVI melanoma): > 100 µM
- TGI (M14 melanoma): > 100 µM
- TGI (MCF7 breast): 38.9 µM
- TGI (MOLT-4 leukemia): > 100 µM
- TGI (NCI-H226 lung): 49.6 µM
- TGI (NCI-H23 lung): 65.8 µM
- TGI (NCI-H460 lung): > 100 µM
- TGI (NCI/ADR-RES ovarian): > 100 µM
- TGI (OVCAR-3 ovarian): 91.3 µM
- TGI (OVCAR-4 ovarian): 53 µM
- TGI (OVCAR-5 ovarian): > 100 µM
- TGI (OVCAR-8 ovarian): > 100 µM
- TGI (PC-3 prostate): 54.3 µM
- TGI (RPMI-8226 leukemia): > 100 µM
- TGI (RXF 393 renal): 39.2 µM
- TGI (SF-268 CNS): 65.7 µM
- TGI (SF-539 CNS): 79.4 µM
- TGI (SK-MEL-28 melanoma): > 100 µM
- TGI (SK-MEL-5 melanoma): > 100 µM
- TGI (SK-OV-3 ovarian): 47.2 µM
- TGI (SN12C renal): > 100 µM
- TGI (SNB-19 CNS): 64 µM
- TGI (SNB-75 CNS): > 100 µM
- TGI (SR leukemia): > 100 µM
- TGI (SW-620 colon): > 100 µM
- TGI (TK-10 renal): > 100 µM
- TGI (U251 CNS): 52 µM
- TGI (UACC-62 melanoma): > 100 µM
- TGI (UO-31 renal): > 100 µM

Compound: CC(=O)NC(C(=O)N1CCCC1C(=O)O)C(C)C (stereo not drawn) (Ac-Val-Pro-OH; configuration not given here)
- GI50 (SNB-75 CNS): 0.032 µg/mL
- TGI (SNB-75 CNS): 66.7 µg/mL
- GI50 (UACC-62 melanoma): 22.4 µg/mL (≈ 87.5 µM)
- TGI (UACC-62 melanoma): 72.4 µg/mL

Compound: N=C(N)c1ccc(-c2ccc(-c3cc(Cl)cc(Cl)c3)s2)nc1
- GI50 (A549 NSCLC): 2.07 µM
- TGI (A549 NSCLC): 4.56 µM
- GI50 (CCRF-CEM leukemia): 2.39 µM
- TGI (CCRF-CEM leukemia): 5.86 µM
- GI50 (DU-145 prostate): 1.88 µM
- TGI (DU-145 prostate): 3.33 µM
- GI50 (HL-60(TB) leukemia): 2.12 µM
- TGI (HL-60(TB) leukemia): 4.95 µM
- GI50 (HOP-92 NSCLC): 3.43 µM
- TGI (HOP-92 NSCLC): 19.4 µM
- GI50 (NCI-H522 lung): 2.16 µM
- TGI (NCI-H522 lung): 4.73 µM
- GI50 (OVCAR-5 ovarian): 1.68 µM
- TGI (OVCAR-5 ovarian): 3.05 µM
- GI50 (RPMI-8226 leukemia): 2.31 µM
- TGI (RPMI-8226 leukemia): 5.26 µM
- GI50 (SK-MEL-2 melanoma): 2.7 µM
- TGI (SK-MEL-2 melanoma): 7.02 µM
- GI50 (SK-OV-3 ovarian): 2.6 µM
- TGI (SK-OV-3 ovarian): 8.15 µM
- GI50 (SNB-75 CNS): 1.47 µM
- TGI (SNB-75 CNS): 3.03 µM
- GI50 (T-47D breast): 2.12 µM
- TGI (T-47D breast): 4.99 µM

Compound: O=C1NCN(c2ccccc2)C12CCN(CCCSc1ccc(F)cc1)CC2
- TGI (786-0 renal): > 100 µM
- TGI (A498 renal): 42.9 µM
- TGI (A549 NSCLC): > 100 µM
- TGI (ACHN renal): > 80.5 µM
- TGI (CAKI-1 renal): > 91.9 µM
- TGI (CCRF-CEM leukemia): > 71.4 µM
- TGI (COLO 205 colon): 3.24 µM
- TGI (DU-145 prostate): > 100 µM
- TGI (EKVX NSCLC): > 100 µM
- TGI (HCC-2998 colon): 67.2 µM
- TGI (HCT-116 colon): 28.5 µM
- TGI (HCT-15 colon): > 100 µM
- TGI (HL-60(TB) leukemia): > 63.6 µM
- TGI (HOP-62 NSCLC): 97 µM
- TGI (HOP-92 NSCLC): 41.6 µM
- TGI (HS 578T breast): > 100 µM
- TGI (HT29 colon): 19.4 µM
- TGI (IGROV1 ovarian): 51.3 µM
- TGI (K-562 leukemia): > 79.2 µM
- TGI (KM12 colon): 65.4 µM
- TGI (LOX IMVI melanoma): 37.1 µM
- TGI (M14 melanoma): 21.7 µM
- TGI (MALME-3M melanoma): 52.7 µM
- TGI (MCF7 breast): > 39.9 µM
- TGI (MDA-MB-231 breast): 25.2 µM
- TGI (MDA-MB-435): 32.6 µM
- TGI (MOLT-4 leukemia): > 100 µM
- TGI (NCI-H226 lung): > 88 µM
- TGI (NCI-H23 lung): 97.3 µM
- TGI (NCI-H460 lung): > 100 µM
- TGI (NCI-H522 lung): > 100 µM
- TGI (NCI/ADR-RES ovarian): > 100 µM
- TGI (OVCAR-3 ovarian): > 100 µM
- TGI (OVCAR-4 ovarian): > 96.6 µM
- TGI (OVCAR-5 ovarian): > 100 µM
- TGI (OVCAR-8 ovarian): > 100 µM
- TGI (PC-3 prostate): > 100 µM
- TGI (RPMI-8226 leukemia): > 100 µM
- TGI (RXF 393 renal): > 100 µM
- TGI (SF-268 CNS): > 100 µM
- TGI (SF-295 CNS): > 100 µM
- TGI (SF-539 CNS): 58.5 µM
- TGI (SK-MEL-2 melanoma): 43.3 µM
- TGI (SK-MEL-28 melanoma): > 100 µM
- TGI (SK-MEL-5 melanoma): 17.9 µM
- TGI (SK-OV-3 ovarian): > 100 µM
- TGI (SN12C renal): > 100 µM
- TGI (SNB-19 CNS): > 100 µM
- TGI (SNB-75 CNS): > 86.1 µM
- TGI (SR leukemia): > 81.7 µM
- TGI (SW-620 colon): > 100 µM
- TGI (T-47D breast): > 100 µM
- TGI (TK-10 renal): 99.1 µM
- TGI (U251 CNS): > 100 µM
- TGI (UACC-257 melanoma): 8.21 µM
- TGI (UACC-62 melanoma): > 69 µM
- TGI (UO-31 renal): > 100 µM

Compound: C/C(=C\c1ccc2c(c1)OCO2)[N+](=O)[O-]
- TGI (A498 renal): 24.3 µM
- TGI (A549 NSCLC): > 100 µM
- TGI (CAKI-1 renal): 4.41 µM
- TGI (CCRF-CEM leukemia): > 100 µM
- TGI (COLO 205 colon): 4.2 µM
- TGI (DU-145 prostate): 8.05 µM
- TGI (EKVX NSCLC): 16.4 µM
- TGI (HCC-2998 colon): 7.34 µM
- TGI (HCT-116 colon): > 100 µM
- TGI (HCT-15 colon): 5.21 µM
- TGI (HL-60(TB) leukemia): 5.73 µM
- TGI (HOP-62 NSCLC): > 100 µM
- TGI (HOP-92 NSCLC): 5.53 µM
- TGI (HS 578T breast): 45.8 µM
- TGI (HT29 colon): 7.21 µM
- TGI (IGROV1 ovarian): 5.89 µM
- TGI (K-562 leukemia): > 100 µM
- TGI (M14 melanoma): 42.5 µM
- TGI (MALME-3M melanoma): 5.68 µM
- TGI (MDA-MB-231 breast): > 100 µM
- TGI (MDA-MB-435): 5.34 µM
- TGI (MOLT-4 leukemia): 1.13 µM
- TGI (NCI-H226 lung): 28.6 µM
- TGI (NCI-H23 lung): 7.54 µM
- TGI (NCI-H460 lung): > 100 µM
- TGI (NCI-H522 lung): 3.21 µM
- TGI (NCI/ADR-RES ovarian): 37.9 µM
- TGI (OVCAR-4 ovarian): 14 µM
- TGI (OVCAR-5 ovarian): 15.1 µM
- TGI (OVCAR-8 ovarian): 5.79 µM
- TGI (PC-3 prostate): 5.9 µM
- TGI (RPMI-8226 leukemia): > 100 µM
- TGI (SF-268 CNS): 10.7 µM
- TGI (SF-295 CNS): 6.27 µM
- TGI (SF-539 CNS): 9.24 µM
- TGI (SK-MEL-2 melanoma): 5.49 µM
- TGI (SK-MEL-28 melanoma): 6.02 µM
- TGI (SK-MEL-5 melanoma): 3.93 µM
- TGI (SN12C renal): 15.9 µM
- TGI (SNB-19 CNS): 6.98 µM
- TGI (SNB-75 CNS): 88.2 µM
- TGI (SR leukemia): 2.39 µM
- TGI (SW-620 colon): > 100 µM
- TGI (T-47D breast): 5.14 µM
- TGI (TK-10 renal): 8.63 µM
- TGI (UACC-257 melanoma): 5.54 µM
- TGI (UACC-62 melanoma): 4.83 µM
